Values quoted from earlier work in publication PMC4435776 (Journal of cardiovascular translational research, 2014).

System: Mouse ESC
Conditions: compared with the effect of CsA; ref [56]

| Compound | effect on stem cells of other calcineurin/NFAT inhibitors |
| --- | --- |
| C=CC[C@@H]1/C=C(\C)C[C@H](C)C[C@H](OC)[C@H]2O[C@@](O)(C(=O)C(=O)N3CCCC[C@H]3C(=O)O[C@H](/C(C)=C/[C@@H]3CC[C@@H](O)[C@H](OC)C3)[C@H](C)[C@@H](O)CC1=O)[C@H](C)C[C@@H]2OC [tacrolimus] | absence of a significant effect |
| 11R-VIVIT | absence of a significant effect |
